The values below come from ChEMBL document CHEMBL1201862, “PubChem BioAssay data set” (2004).

The structures appear in SMILES notation.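 Where inhibition never reached the appropriate level, the endpoint shown equals the highest concentration tested. Otherwise, values were interpolated linearly from a five-concentration, 48-hour dose response in 96-well plates. Here, GI50 denotes the concentration required for 50% inhibition of growth.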 Activity calls are given as the source filed them. No stated cut-off is given here; in the data, active = GI50 up to about 1.1 µM and inactive = higher.

Among the test systems are OVCAR-5; IGROV-1; SNB-19; OVCAR-4; HOP-92; U-251; OVCAR-8; K562; HL-60; RPMI-8226; NCI-H23; NCI-H460; KM12; SK-MEL-2; SN12C; RXF 393; MDA-MB-435; PC-3; Hs-578T.
Common to all, as to test: NCI tumour cell line growth inhibition, 48 h

Turning to `CC(Cn1c2c3ccccc3ccc2c2oc(=O)c3ccccc3c21)N(C)C` (stereo not given), the GI50 in the assay on OVCAR-5, in the assay with IGROV-1, with SNB-19, with OVCAR-4, in the assay on HOP-92 and in the assay with U-251 was > 100 µM (inactive) throughout. For the same compound, the GI50 in the assay with OVCAR-8, in the assay on K562, in the assay with HL-60, with RPMI-8226, in the assay with NCI-H23 and with NCI-H460 was > 100 µM (inactive) each time. The GI50 in the assay on KM12 and in the assay with SK-MEL-2 was > 100 µM (inactive) in each case.

Consider `CNC(=O)N(CCC#N)[C@H]1CCCC[C@@H]1N(C(=O)NC)c1ccccc1`, for which the GI50 with OVCAR-5, in the assay with IGROV-1, in the assay on SNB-19, with OVCAR-4, with HOP-92 and in the assay on U-251 was > 100 µM (inactive) in each case. Further, the GI50 in the assay with OVCAR-8, in the assay on K562, with RPMI-8226, with SN12C, in the assay with NCI-H23 and in the assay on RXF 393 was > 100 µM (inactive) each time. For the same compound, the GI50 in the assay with MDA-MB-435, in the assay with PC-3, with NCI-H460, in the assay on KM12 and in the assay on SK-MEL-2 was > 100 µM (inactive) in each case.

Take `CC(C)(C)n1c(=O)[nH]c(=O)n1C(C)(C)C`: the GI50 in the assay on OVCAR-5, with IGROV-1, in the assay with SNB-19, in the assay with OVCAR-4, with HOP-92 and in the assay with U-251 was > 100 µM (inactive) each time. The GI50 with OVCAR-8, in the assay with K562, with HL-60, in the assay on Hs-578T, in the assay with SN12C and in the assay with NCI-H23 was > 100 µM (inactive) in each case. Besides, the GI50 in the assay with RXF 393, with PC-3, with NCI-H460, in the assay with KM12 and in the assay with SK-MEL-2 was > 100 µM (inactive) throughout.

For the compound `COc1cc(/C=C2\C(=O)N(c3cccc(Cl)c3)C(c3ccccc3)S2(=O)=O)cc(OC)c1OC` (stereo not given), the GI50 with OVCAR-5 was > 100 µM (inactive); with SNB-19 it was 23.7 µM (inactive); in the assay on OVCAR-4 it was 85.5 µM (inactive); in the assay on HOP-92 it was 30.6 µM (inactive); with U-251, 73.8 µM (inactive); in the assay with OVCAR-8 it was 86.7 µM (inactive). Further, the GI50 with K562 is 22.3 µM (inactive); in the assay with HL-60 it was 36.4 µM (inactive); in the assay with Hs-578T it was > 100 µM (inactive); in the assay on RPMI-8226, 23.2 µM (inactive); in the assay with SN12C, 72.8 µM (inactive); with NCI-H23, 66.2 µM (inactive). Moreover, the GI50 with RXF 393 is 26.2 µM (inactive); in the assay on MDA-MB-435, 30.5 µM (inactive); in the assay with NCI-H460, > 100 µM (inactive); in the assay with KM12, 58.1 µM (inactive); with SK-MEL-2, > 100 µM (inactive).

As to `O=C1C(Br)=CC2(C=C1Br)CCNC1=C2C(=O)c2ccccc2C1=O`, the GI50 is 18.5 µM (inactive) in the assay with IGROV-1; 4.21 µM (inactive) with OVCAR-8; 7.89 µM (inactive) with K562; 3.34 µM (inactive) with HL-60; 4.75 µM (inactive) with RPMI-8226; 6.68 µM (inactive) in the assay with SN12C. Moreover, the GI50 was 7.6 µM (inactive) with NCI-H23, 3.84 µM (inactive) with RXF 393, 8.22 µM (inactive) with KM12 and 14.9 µM (inactive) in the assay on SK-MEL-2.

As to `CC(=O)O[C@H]1C[C@H](O[C@H]2[C@@H](O)C[C@H](O[C@H]3[C@@H](O)C[C@H](O[C@H]4CC[C@@]5(C)[C@H](CC[C@@H]6[C@@H]5C[C@@H](O)[C@]5(C)[C@@H](C7=CC(=O)OC7)CC[C@]65O)C4)O[C@@H]3C)O[C@@H]2C)O[C@H](C)[C@H]1O[C@@H]1O[C@H](CO)[C@@H](O)[C@H](O)[C@H]1O` [LANATOSIDE C], the GI50 with OVCAR-5 is 0.0869 µM (active); in the assay on IGROV-1 it was 0.0435 µM (active); in the assay on SNB-19, 0.168 µM (active); in the assay with OVCAR-4, 0.0465 µM (active); in the assay on HOP-92, 0.122 µM (active); in the assay with U-251, 0.0741 µM (active). The GI50 in the assay with OVCAR-8 is 0.0612 µM (active); with K562, 0.04 µM (active); in the assay on HL-60 it was 0.0332 µM (active); in the assay on Hs-578T, 0.0252 µM (active); in the assay with RPMI-8226 it was 0.0368 µM (active); in the assay on NCI-H23 it was 0.0193 µM (active). The GI50 was 0.212 µM (active) with MDA-MB-435, 0.0138 µM (active) with NCI-H460, 0.104 µM (active) in the assay with KM12 and 0.165 µM (active) with SK-MEL-2.

Take `CC(=O)OCC1C(C(C)OC(C)=O)CCC2C1CCC1(C)C(OC(C)=O)CCC21` (stereo not given): the GI50 is 54.6 µM (inactive) in the assay with OVCAR-5; 20 µM (inactive) in the assay with IGROV-1; 20.4 µM (inactive) in the assay with SNB-19; 19.8 µM (inactive) in the assay with OVCAR-4; 17.9 µM (inactive) in the assay on HOP-92; 16.6 µM (inactive) with U-251. Besides, the GI50 in the assay with OVCAR-8 is 19.7 µM (inactive); in the assay on K562 it was 11.2 µM (inactive); with HL-60 it was 17.1 µM (inactive); in the assay with Hs-578T, > 10 µM (inactive); in the assay on RPMI-8226, 16.5 µM (inactive); in the assay with SN12C, 18 µM (inactive). The GI50 with NCI-H23 is 24.1 µM (inactive); in the assay with MDA-MB-435 it was 18.7 µM (inactive); with NCI-H460 it was 16.9 µM (inactive); in the assay on KM12 it was 15.7 µM (inactive).

`CC(=O)Oc1ccc2cc(Oc3ccc(Cl)c(Cl)c3)c(=O)oc2c1`: the GI50 with OVCAR-5 is 72.6 µM (inactive); in the assay on IGROV-1, 29.4 µM (inactive); with SNB-19, 27.9 µM (inactive); in the assay on OVCAR-4 it was 41.8 µM (inactive); in the assay with HOP-92, 20.3 µM (inactive); in the assay on U-251, 16 µM (inactive). Further, the GI50 in the assay with OVCAR-8 is 32 µM (inactive); in the assay on K562, 25.4 µM (inactive); in the assay on HL-60 it was 60.5 µM (inactive); with Hs-578T it was 33 µM (inactive); in the assay with RPMI-8226, 20.4 µM (inactive); in the assay on SN12C, 24.9 µM (inactive). Further, the GI50 with NCI-H23 is 35.6 µM (inactive); in the assay with RXF 393, 19.2 µM (inactive); with PC-3, 24.7 µM (inactive); in the assay with NCI-H460, 24 µM (inactive); in the assay on KM12, 18.5 µM (inactive).

In the case of `C[C@H](CS)C(=O)N1c2ccccc2C[C@H]1C(=O)O`, the GI50 in the assay on OVCAR-5, in the assay with IGROV-1, in the assay on SNB-19, in the assay with OVCAR-4, with U-251 and in the assay with OVCAR-8 was > 100 µM (inactive) in each case. Also, the GI50 in the assay on K562, with HL-60, in the assay with Hs-578T, in the assay on SN12C, in the assay on NCI-H23 and in the assay on PC-3 was > 100 µM (inactive) in each case. Besides, the GI50 in the assay on NCI-H460, in the assay on KM12 and in the assay on SK-MEL-2 was > 100 µM (inactive) in each case.

`O=C(NNC(=S)NC1CCCCC1)c1csc(NC(=S)NC2CCCCC2)n1`: the GI50 with OVCAR-5 is 12.8 µM (inactive); with IGROV-1, 3.52 µM (inactive); with SNB-19, 12 µM (inactive); in the assay with U-251, 5.73 µM (inactive); in the assay with OVCAR-8 it was 2.25 µM (inactive); in the assay on HL-60, > 100 µM (inactive). In addition, the GI50 is 9.86 µM (inactive) with RPMI-8226; 5.6 µM (inactive) in the assay on SN12C; 10.4 µM (inactive) with NCI-H23; 10.8 µM (inactive) in the assay on MDA-MB-435; 10.9 µM (inactive) in the assay with PC-3; 10.6 µM (inactive) with KM12. In addition, the GI50 in the assay on SK-MEL-2 is 15.5 µM (inactive).

In the case of `CCOC(=O)C(=O)Nc1c(F)cc(F)cc1Br`, the GI50 with OVCAR-5, in the assay on IGROV-1, with SNB-19, in the assay with OVCAR-4, in the assay on HOP-92 and in the assay with U-251 was > 100 µM (inactive) throughout. Further, the GI50 in the assay with OVCAR-8, in the assay with K562, in the assay with HL-60, in the assay with RPMI-8226, in the assay on SN12C and with NCI-H23 was > 100 µM (inactive) each time. The GI50 in the assay with RXF 393, with NCI-H460, with KM12 and in the assay on SK-MEL-2 was > 100 µM (inactive) each time.

As to `CC(C)(C)[Si](C)(C)OCC1OC(n2ccc(N)nc2=O)C(O[Si](C)(C)C(C)(C)C)C1O[Si](C)(C)C(C)(C)C` (stereo not given), the GI50 in the assay with OVCAR-5 was 1.63 µM (inactive); in the assay with IGROV-1, 2.04 µM (inactive); in the assay on SNB-19, 3.24 µM (inactive); in the assay on OVCAR-4, 0.0356 µM (active); in the assay with HOP-92, 2.17 µM (inactive); in the assay on OVCAR-8, 2.33 µM (inactive). In addition, the GI50 was 2.55 µM (inactive) in the assay with Hs-578T; 3.65 µM (inactive) in the assay with SN12C; 1.74 µM (inactive) in the assay with PC-3; 1.9 µM (inactive) with NCI-H460; 2.07 µM (inactive) in the assay with SK-MEL-2.

For `O=C(/C=C/c1cccc(Br)c1)c1cccs1`, the GI50 in the assay with IGROV-1 is 17.1 µM (inactive); with SNB-19, 14.2 µM (inactive); with OVCAR-4, 16.5 µM (inactive); with U-251 it was 13.9 µM (inactive); in the assay with OVCAR-8, 17.7 µM (inactive); in the assay on K562 it was 3.13 µM (inactive). Also, the GI50 in the assay on HL-60 was 3.83 µM (inactive); in the assay on Hs-578T, 27.9 µM (inactive); in the assay on RPMI-8226 it was 2.09 µM (inactive); in the assay on SN12C, 14.7 µM (inactive); in the assay on NCI-H23 it was 19.5 µM (inactive); in the assay with MDA-MB-435, 11.7 µM (inactive). Also, the GI50 is 17.5 µM (inactive) with PC-3, 16.2 µM (inactive) in the assay with NCI-H460, 13.7 µM (inactive) with KM12 and 17.7 µM (inactive) in the assay with SK-MEL-2.
